# From ChEMBL document CHEMBL3885861, “Open TG-GATES”
# Values joined by “and” are separate entries in the source; they are usually repeats but may differ in a detail not shown here. Identical values can stand only once.
# Species on record: Rattus norvegicus
# Test: Open TG-GATES - Regimen: Single
# Type: toxicity, organism-based, Sprague-Dawley
# Set-up: regimen Single, gender Male, age 6 weeks
# Conditions: in vivo, po, 0 mg/kg, route gavage, dose level Control; for APTT / Bas / Eos / Fbg / Hb / Ht / Lym / MCH / MCHC / MCV / Mono / Neu / PT / Plat / RBC / Ret / WBC: tissue Blood; for KIDNEY_L / KIDNEY_R / KIDNEY_TOTAL: tissue Kidney; for LIVER: tissue Liver; for ALP / ALT / AST / BUN / CRE / Ca / Cl / GLC / IP / K / LDH / Na / PL / RALB / TBIL / TC / TP / gamma-GTP: tissue Plasma
compound,measurement,setting,value
O=P1(N(CCCl)CCCl)NCCCO1 (stereo not given) [CYCLOPHOSPHAMIDE ANHYDROUS],TERMINAL_BW,3 h,187.8 g and 193 g
same,APTT,3 h,22.9 s and 16.1 s
same,Bas,3 h,0% and 0.2%
same,Eos,3 h,1% and 0.6%
same,Fbg,3 h,287.4 mg/dL and 271.4 mg/dL
same,Hb,3 h,13.1 g/dL and 13.4 g/dL
same,Ht,3 h,39.1% and 39.6%
same,Lym,3 h,84% and 75.6%
same,MCH,3 h,21.3 pg and 21 pg
same,MCHC,3 h,33.5% and 33.7%
same,MCV,3 h,63.6 fL and 62.4 fL
same,Mono,3 h,1.6% and 3.2%
same,Neu,3 h,12.8% and 20.2%
same,PT,3 h,15.9 s and 13.8 s
same,Plat,3 h,124.4 x10_4/uL and 125.2 x10_4/uL
same,RBC,3 h,614.8 x10_4/ul and 636 x10_4/ul
same,Ret,3 h,8.6% and 9.1%
same,WBC,3 h,75.9 x10_2/uL and 115.3 x10_2/uL
same,KIDNEY_L,3 h,0.9 g
same,KIDNEY_R,3 h,0.8 g
same,KIDNEY_TOTAL,3 h,1.7 g
same,LIVER,3 h,8.5 g and 8.2 g
same,ALP,3 h,1691.4 IU/L and 1383.8 IU/L
same,ALT,3 h,46.4 IU/L and 37.2 IU/L
same,AST,3 h,77.8 IU/L and 73.8 IU/L
same,BUN,3 h,13.4 mg/dL and 10 mg/dL
same,CRE,3 h,0.2 mg/dL
same,Ca,3 h,10.6 mg/dL and 11 mg/dL
same,Cl,3 h,106.8 meq/L and 105.2 meq/L
same,GLC,3 h,188.8 mg/dL and 175.4 mg/dL
same,IP,3 h,8.2 mg/dL and 8.4 mg/dL
same,K,3 h,3.8 meq/L and 4.6 meq/L
same,LDH,3 h,185 IU/L and 66 IU/L
same,Na,3 h,144.2 meq/L and 140.4 meq/L
same,PL,3 h,135.6 mg/dL and 140.8 mg/dL
same,RALB,3 h,2.9 g/dL and 2.4 g/dL
same,TBIL,3 h,0.026 mg/dL and 0.066 mg/dL
same,TC,3 h,78.4 mg/dL and 78 mg/dL
same,TP,3 h,5.4 g/dL and 5.2 g/dL
same,gamma-GTP,3 h,1 IU/L and 1.2 IU/L
same,TERMINAL_BW,6 h,190.8 g and 192 g
same,APTT,6 h,21.9 s and 18.3 s
same,Bas,6 h,0%
same,Eos,6 h,0.6% and 1%
same,Fbg,6 h,286 mg/dL and 280.6 mg/dL
same,Hb,6 h,13.3 g/dL and 12.8 g/dL
same,Ht,6 h,39.8% and 38.3%
same,Lym,6 h,78.6% and 76.6%
same,MCH,6 h,21.1 pg and 20.7 pg
same,MCHC,6 h,33.5%
same,MCV,6 h,63.1 fL and 61.8 fL
same,Mono,6 h,2%
same,Neu,6 h,17.8% and 20.2%
same,PT,6 h,16.4 s and 14 s
same,Plat,6 h,122.5 x10_4/uL and 115 x10_4/uL
same,RBC,6 h,630.6 x10_4/ul and 620.2 x10_4/ul
same,Ret,6 h,8.1% and 8.5%
same,WBC,6 h,102.3 x10_2/uL and 90.1 x10_2/uL
same,KIDNEY_L,6 h,0.9 g and 0.8 g
same,KIDNEY_R,6 h,0.9 g and 0.8 g
same,KIDNEY_TOTAL,6 h,1.7 g
same,LIVER,6 h,8.1 g
same,ALP,6 h,1329.6 IU/L and 1641.8 IU/L
same,ALT,6 h,38.8 IU/L and 34.4 IU/L
same,AST,6 h,66.8 IU/L and 71.4 IU/L
same,BUN,6 h,10.8 mg/dL and 10 mg/dL
same,CRE,6 h,0.1 mg/dL and 0.2 mg/dL
same,Ca,6 h,10.6 mg/dL and 11 mg/dL
same,Cl,6 h,106 meq/L and 106.2 meq/L
same,GLC,6 h,185.2 mg/dL and 174.8 mg/dL
same,IP,6 h,8.9 mg/dL and 9 mg/dL
same,K,6 h,4.2 meq/L and 4.3 meq/L
same,LDH,6 h,166.8 IU/L and 60.6 IU/L
same,Na,6 h,143.4 meq/L and 142.4 meq/L
same,PL,6 h,134.2 mg/dL and 136.8 mg/dL
same,RALB,6 h,2.8 g/dL and 2.5 g/dL
same,TBIL,6 h,0.032 mg/dL and 0.068 mg/dL
same,TC,6 h,75.8 mg/dL and 74.2 mg/dL
same,TP,6 h,5.4 g/dL and 5.3 g/dL
same,gamma-GTP,6 h,1 IU/L
same,TERMINAL_BW,9 h,186.5 g and 187.9 g
same,APTT,9 h,20.3 s and 17.4 s
same,Bas,9 h,0%
same,Eos,9 h,0.6% and 1%
same,Fbg,9 h,300.4 mg/dL and 291.4 mg/dL
same,Hb,9 h,13 g/dL and 12.7 g/dL
same,Ht,9 h,38.9% and 38.1%
same,Lym,9 h,80.8% and 75.6%
same,MCH,9 h,21.1 pg and 20.6 pg
same,MCHC,9 h,33.5% and 33.3%
same,MCV,9 h,62.9 fL and 61.8 fL
same,Mono,9 h,1.8%
same,Neu,9 h,16.4% and 20.8%
same,PT,9 h,16.6 s and 13.9 s
same,Plat,9 h,120.1 x10_4/uL and 120.7 x10_4/uL
same,RBC,9 h,619.4 x10_4/ul and 616.6 x10_4/ul
same,Ret,9 h,7.8% and 8.3%
same,WBC,9 h,78.2 x10_2/uL and 80.1 x10_2/uL
same,KIDNEY_L,9 h,0.9 g and 0.8 g
same,KIDNEY_R,9 h,0.9 g and 0.8 g
same,KIDNEY_TOTAL,9 h,1.8 g and 1.6 g
same,LIVER,9 h,7.7 g and 7.1 g
same,ALP,9 h,1482.2 IU/L and 1393 IU/L
same,ALT,9 h,37.6 IU/L and 35 IU/L
same,AST,9 h,69 IU/L and 73.8 IU/L
same,BUN,9 h,10.4 mg/dL and 7.4 mg/dL
same,CRE,9 h,0.1 mg/dL and 0.2 mg/dL
same,Ca,9 h,10.4 mg/dL and 10.7 mg/dL
same,Cl,9 h,106 meq/L and 106.4 meq/L
same,GLC,9 h,178.6 mg/dL and 161 mg/dL
same,IP,9 h,9.7 mg/dL and 9.3 mg/dL
same,K,9 h,3.8 meq/L and 4.2 meq/L
same,Na,9 h,143 meq/L and 141.8 meq/L
same,PL,9 h,126.6 mg/dL and 131.6 mg/dL
same,RALB,9 h,3 g/dL and 2.5 g/dL
same,TBIL,9 h,0.034 mg/dL and 0.072 mg/dL
same,TC,9 h,72.6 mg/dL and 78 mg/dL
same,TP,9 h,5.4 g/dL and 5.3 g/dL
same,gamma-GTP,9 h,1 IU/L and 1.6 IU/L
same,TERMINAL_BW,24 h,205 g and 201 g
same,APTT,24 h,21 s and 17.8 s
same,Bas,24 h,0%
same,Eos,24 h,0.6% and 1.2%
same,Fbg,24 h,300.2 mg/dL and 289 mg/dL
same,Hb,24 h,13.1 g/dL and 13.5 g/dL
same,Ht,24 h,39.3% and 40.6%
same,Lym,24 h,81.8% and 74.6%
same,MCH,24 h,21.4 pg and 20.6 pg
same,MCHC,24 h,33.3% and 33.4%
same,MCV,24 h,64.2 fL and 61.7 fL
same,Mono,24 h,2.2% and 3%
same,Neu,24 h,15.2% and 21%
same,PT,24 h,16.5 s and 14 s
same,Plat,24 h,120.5 x10_4/uL and 107.8 x10_4/uL
same,RBC,24 h,612.4 x10_4/ul and 658.4 x10_4/ul
same,Ret,24 h,7.8% and 7.5%
same,WBC,24 h,90.3 x10_2/uL and 86.9 x10_2/uL
same,KIDNEY_L,24 h,0.9 g
same,KIDNEY_R,24 h,0.9 g and 0.8 g
same,KIDNEY_TOTAL,24 h,1.9 g and 1.7 g
